Laboratory results reported in patent publication US11028127B2, “Peptides capable of reactivating p53 mutants” (Yeda Research and Development Co. Ltd., priority 2013, dated 2021).

Target: T1, Mut-p53 (R175H p53) (Homo sapiens, UniProt P04637, R175H)
T1 construct: a hot spot full length mutant p53 Mut-p53 R175H (R175H p53); expressed in transfected cells; host or cells: H1299 (p53-null) cells stably overexpressing R175H p53; cell extract
Assay: Sandwich ELISA for p53 conformation (PAb1620/PAb240 reactivity)
Format: biochemical
Procedure: To measure the conformational effect of the peptides on Mut-p53, a micro-titer plate was coated with either PAb240, PAb1620 or pAb421 (as a positive control and standard for total p53 protein, since the antibody used recognizes both WT and mutant conformations), overnight incubated, washed, blocked, and cell extracts (with or without peptides) were added for an additional 2 hours. After removal of extracts, plates were washed and incubated with the αp53-HRP conjugated Ab for the detection of p53 levels. A TMB (substrate of HRP) assay was performed and optical density was determined at 450 nm. WT p53 served as a positive control for reactivity with PAb1620, and Mut-p53 served as a negative control. The results are presented as the ratio of absorbance between the PAb1620 or PAb240 samples and the control […] sample. MCF7 and H1299-Mut-p53 (ts) A135V (TS) cells were used as positive controls for the WT p53 conformation (1620/240 ratio equals or exceeds 5:1).
96-well plates were coated using 3 different antibodies (1 type of antibody (Ab) in each well): PAb421 recognizes both conformations of p53 and binds to a C-terminus epitope; PAb240 recognizes mutant conformation of p53, binds to epitope within the core domain (amino acids 212-217) (Stephen, C. W. and D. P. Lane, Mutant conformation of p53. Precise epitope mapping using a filamentous phage epitope library. J. Mol. Biol., 1992. 225(3): p. 577-83) which is accessible to the Ab when the protein is partially denatured (for example, when the DBD is mutated); and PAb1620, which recognizes WT conformation of p53, binds to epitope with in the core domain (aa 156, 206-210), formed when folding is in WT conformation (Wang, P. L., F. Salt, and G. Winter, The ‘wild type’ conformation of p53: epitope mapping using hybrid proteins. Oncogene, 2001. 20(18): p. 2318-24).
Wells were incubated overnight (ON) with 100 μl Ab (5 μg/ml) in room temp (RT). The liquid was discarded, and the wells were washed 3 times with Phosphate buffered saline (PBS), 200 μl per each wash. Next, blocking with 200 μl of 5% bovine serum albumin (BSA) diluted in PBS in each well for 1.5 hours at room temperature (RT) was performed. Blocking buffer was discarded, followed by 3 washes in PBS as described above. Samples of mutant and WT p53 proteins (100 μl, 10 μg/ml), together with control peptides pCAP-710 (LPNPPER, SEQ ID NO:328) and pCAP-1220 ([…], SEQ ID NO:368) (5 μg/ml, Sigma Aldrich, or with test peptides 1-153 (5 μg/ml), were incubated for 1.5 hours together, and then added to the wells. Samples were rotated and incubated for 1 hour at RT. Samples were discarded, following 4 washes as described above, using Trisphosphate buffered saline (TPBS). Next, horseradish peroxidase (HRP) conjugated streptavidin p53 antibody (10 μg/ml HAF1355 (R&D)) was added to the wells and incubated at RT for 1 hour. After the plate was washed 3 times in TPBS, TMB substrate solution (50 μl each well, Thermo, (Cat. No. ES001-1L-K)) was added and incubated at 37° c. for 20 min. The reaction was stopped with 2M sulfuric acid (50 μl). The absorbance was measured at 450 nm with a spectrophotometer. Protein concentration was determined by dividing the absorbencies of each sample to the absorbance of Ab 421 samples.
The first screening strategy was based on ELISA. A version of sandwich ELISA was used to examine the effect of the lead test peptides on p53 conformation. To measure the conformational effect of the peptides on Mut-p53, a micro-titer plate was coated with PAb240, PAb1620 or pAb421 (as a positive control), and then the reactivity of p53 to these antibodies was examined. WT p53 served as a positive control for reactivity with PAb1620, and Mut-p53 served as a negative control. To examine the effect of a tested peptide it was added to a solution containing Mut-p53 and change in reactivity to either Ab was tested. […] Several ELISA experiments using different cell extracts were performed. […]

For YRRLLIGMMWRRRRRRRRRRR [pCAP-68], the “effect on Mut-p53 conformation (conformational change)” value was “significant shift in Mut-p53 conformation towards PAb1620” and the “reactivity of R175H Mut-p53 towards PAb1620 and PAb240 (conformational change)” value (extract of H1299 cells overexpressing R175H p53, peptide 50 ng/ml, 2 hours) was “increased reactivity of R175H Mut-p53 towards PAb1620 and decreased reactivity towards PAb240”.
